Measurements taken from patent US9708315B2, “1,2,4-triazolo[4,3-a]pyridine compounds and their use as positive allosteric modulators of MGLUR2 receptors” (Janssen Pharmaceutica NV, priority 2013, dated 2017).

Experiments:
male Wiga Wistar rats = test: Conditioned avoidance response (CAR) test in rats; type: in vivo; conditions: Rattus norvegicus, PO, suspension in 20% hydroxypropyl-b-cyclodextrin containing 1% polysorbate 80
Source text: The apparatus consisted of an inner box surrounded by an outer box. The inner box was composed of four walls of transparent, synthetic material (length×width×height: 30×30×30 cm), an open top, and a grid floor made of 15 pairs of iron bars (2 mm diameter; 6 mm inter-bar distance). Odd and even bars were connected with a source of alternative current (1.0 mA; Coulbourn Instruments Solid State Shocker/Distributor), which could be interrupted by a switch. The outer box was composed of the same material (length×width×height: 40×40×36 cm), also with an open top, with a distance of 5 cm between the inner and outer box on all sides. To decrease the amount of environmental stimuli, three walls of the outer box were made non-transparent. The front wall was left transparent to allow the necessary inspection of the animal during the test. The upper edge of the outer and inner box served as a target for the rats on which to jump with fore- and hind-paws, respectively. Avoidance Conditioning and Selection of Animals From their arrival in the laboratory on the experimental day, male Wiga Wistar rats (230±30 g) were housed in individual cages provided with bedding material. […] Experimental Sessions The rats were tested 3 times, i.e. at 60, 90 and 120 min after the injection of test compound or solvent. Latency to avoidance was recorded. […]

human mGlu2 receptor = molecular target: T1, human mGlu2 receptor (Homo sapiens, UniProt Q14416); test: [35S]GTPγS binding assay, mGluR2 PAM; type: biochemical; conditions: in presence of glutamate at EC20; EC50 expressed in M; read-out: GTPγS - hmGluR2 PAM pEC50 (converted)
T1 construct: expressed in transfected cells; host or cells: CHO cells
Experimental: [^35S]GTPγS Binding Assay
The [^35S]GTPγS binding assay is a functional membrane-based assay used to study G-protein coupled receptor (GPCR) function whereby incorporation of a non-hydrolysable form of GTP, [^35S]GTPγS (guanosine 5′-triphosphate, labelled with […] ^35S), is measured.
Cells were then collected by scraping in PBS and cell suspension was centrifuged (10 min at 4000 RPM in benchtop centrifuge). Supernatant was discarded and pellet gently resuspended in 50 mM Tris-HCl, pH 7.4 by mixing with a vortex and pipetting up and down. The suspension was centrifuged at 16,000 RPM (Sorvall RC-5C plus rotor SS-34) for 10 minutes and the supernatant discarded. The pellet was homogenized in 5 mM Tris-HCl, pH 7.4 using an ultra-turrax homogenizer and centrifuged again (18,000 RPM, 20 min, 4° C.). The final pellet was resuspended in 50 mM Tris-HCl, pH 7.4 and stored at −80° C. in appropriate aliquots before use. Protein concentration was determined by the Bradford method (Bio-Rad, USA) with bovine serum albumin as standard.
Measurement of mGluR2 positive allosteric modulatory activity of test compounds was performed as follows. Test compounds and glutamate were diluted in assay buffer containing 10 mM HEPES acid, 10 mM HEPES salt, pH 7.4, 100 mM NaCl, 3 mM MgCl2 and 10 μM GDP. Human mGlu2 receptor-containing membranes were thawed on ice and diluted in assay buffer supplemented with 14 μg/ml saponin. Membranes were pre-incubated with compound alone or together with a predefined (˜EC20) concentration of glutamate (PAM assay) for 30 min at 30° C. After addition of [^35S]GTPγS (f c. 0.1 nM), assay mixtures were shaken briefly and further incubated to allow [^35S]GTPγS incorporation on activation (30 minutes, 30° C.). Final assay mixtures contained 7 μg of membrane protein in 10 mM HEPES acid, 10 mM HEPES salt, pH 7.4, 100 mM NaCl, 3 mM MgCl2, 10 μM GDP and 2 μg/ml saponin. […] Filters were washed 6 times with ice-cold 10 mM NaH2PO4/10 mM Na2HPO4, pH 7.4. Filters were then air-dried, and 40 μl of liquid scintillation cocktail (Microscint-O) was added to each well. Membrane-bound radioactivity was counted in a Microplate Scintillation and Luminescence Counter from Perkin Elmer.
The concentration-response curves of representative compounds of the present invention—obtained in the presence of EC20 of mGluR2 agonist glutamate to determine positive allosteric modulation (PAM)—were generated using the Lexis software interface (developed at J&J). Data were calculated as % of the control glutamate response, defined as the maximal response that is generated upon addition of glutamate alone. Sigmoid concentration-response curves plotting these percentages versus the log concentration of the test compound were analyzed using non-linear regression analysis. The concentration producing half-maximal effect is then calculated as EC50.
The pEC50 values below were calculated as the −log EC50, when the EC50 is expressed in M. Emax is defined as relative maximal effect (i.e. maximal % effect relative to the control glutamate response).
All compounds were tested in presence of mGluR2 agonist glutamate at a predetermined EC20 concentration, to determine positive allosteric modulation. pEC50 values were calculated from a concentration-response experiment of at least 8 concentrations.

T1 sequence (Q14416 19-872): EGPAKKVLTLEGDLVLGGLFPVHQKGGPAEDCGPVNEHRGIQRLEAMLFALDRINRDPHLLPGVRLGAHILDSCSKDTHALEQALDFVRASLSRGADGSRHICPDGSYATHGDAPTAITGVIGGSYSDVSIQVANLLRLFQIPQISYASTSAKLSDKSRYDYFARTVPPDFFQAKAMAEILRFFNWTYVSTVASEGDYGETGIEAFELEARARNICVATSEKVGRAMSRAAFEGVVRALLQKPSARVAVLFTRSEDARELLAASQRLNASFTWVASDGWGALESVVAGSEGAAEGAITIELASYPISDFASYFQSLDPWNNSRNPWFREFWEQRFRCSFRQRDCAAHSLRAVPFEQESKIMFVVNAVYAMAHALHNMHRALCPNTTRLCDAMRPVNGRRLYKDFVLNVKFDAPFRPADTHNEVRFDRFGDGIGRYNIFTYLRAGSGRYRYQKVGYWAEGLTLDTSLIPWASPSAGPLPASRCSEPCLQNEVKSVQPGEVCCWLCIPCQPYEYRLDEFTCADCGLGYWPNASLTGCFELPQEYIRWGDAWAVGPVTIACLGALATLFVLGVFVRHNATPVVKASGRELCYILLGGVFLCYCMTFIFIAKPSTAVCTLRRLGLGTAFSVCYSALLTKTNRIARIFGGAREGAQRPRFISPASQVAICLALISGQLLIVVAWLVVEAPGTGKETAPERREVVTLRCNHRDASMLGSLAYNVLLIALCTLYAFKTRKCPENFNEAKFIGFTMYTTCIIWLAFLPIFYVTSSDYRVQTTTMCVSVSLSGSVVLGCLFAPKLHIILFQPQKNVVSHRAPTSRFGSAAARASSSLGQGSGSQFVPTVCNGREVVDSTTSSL

- EC50 (human mGlu2 receptor): 40.7 nM
SMILES: C[C@H](Oc1ccc(F)cc1F)c1ccn2c(CC3CC3)nnc2c1C(F)(F)F [Compound 6, 3-(Cyclopropylmethyl)-7-[(1S)-1-(2,4-difluorophenoxy)ethyl]-8-(trifluoromethyl)[1,2,4]triazolo[4,3-a]pyridine]
- ED50 (male Wiga Wistar rats): 8.1 mg/kg
